Laboratory results published in US8557839B2, “Fused ring azadecalin glucocorticoid receptor modulators” (Corcept Therapeutics, Inc., priority 2004, dated 2013).

What was measured:
[1] = target: T1, mineralocorticoid (MR) receptor (Homo sapiens, UniProt P08235); experiment: MR functional assay using T47D/MMTV-5 cells; assay type: cell-based; settings: read-out: inhibition of the MR functional response
T1 construct: containing endogenous mineralocorticoid-(MR) and progesterone (PR) receptors; endogenous in cells; host or cells: T47D/MMTV-5 (human breast carcinoma, stably carrying the pMAMneo-Luc reporter)
T1 sequence (P08235 1-984): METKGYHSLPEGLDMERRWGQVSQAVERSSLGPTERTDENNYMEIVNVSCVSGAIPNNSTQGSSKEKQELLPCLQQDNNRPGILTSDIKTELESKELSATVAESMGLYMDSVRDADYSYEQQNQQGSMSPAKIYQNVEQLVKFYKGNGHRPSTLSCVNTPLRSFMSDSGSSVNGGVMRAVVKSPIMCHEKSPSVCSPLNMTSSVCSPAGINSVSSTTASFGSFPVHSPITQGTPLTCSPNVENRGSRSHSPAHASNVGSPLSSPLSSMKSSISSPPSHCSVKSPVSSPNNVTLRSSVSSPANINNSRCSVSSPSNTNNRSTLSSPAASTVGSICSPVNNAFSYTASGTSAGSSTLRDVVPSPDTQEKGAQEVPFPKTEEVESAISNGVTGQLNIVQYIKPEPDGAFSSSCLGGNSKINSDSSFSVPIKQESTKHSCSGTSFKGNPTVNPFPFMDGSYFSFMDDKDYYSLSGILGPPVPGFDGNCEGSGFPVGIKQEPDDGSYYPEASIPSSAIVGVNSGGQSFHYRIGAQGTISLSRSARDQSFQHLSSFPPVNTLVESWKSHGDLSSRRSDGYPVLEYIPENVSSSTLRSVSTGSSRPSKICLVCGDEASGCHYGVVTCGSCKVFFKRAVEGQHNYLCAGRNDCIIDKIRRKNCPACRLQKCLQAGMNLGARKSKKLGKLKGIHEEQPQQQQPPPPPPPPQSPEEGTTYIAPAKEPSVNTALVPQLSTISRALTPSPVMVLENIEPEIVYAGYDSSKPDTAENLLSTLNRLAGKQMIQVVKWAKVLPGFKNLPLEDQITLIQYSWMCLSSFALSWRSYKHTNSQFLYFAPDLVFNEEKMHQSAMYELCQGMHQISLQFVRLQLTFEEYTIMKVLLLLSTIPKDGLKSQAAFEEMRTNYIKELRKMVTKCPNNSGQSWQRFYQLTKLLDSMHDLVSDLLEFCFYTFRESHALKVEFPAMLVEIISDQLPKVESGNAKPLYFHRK
Method: (§1) As for the SW 1353 cell line, T47D cells was transfected with the same pMAMneo-Luc plasmid, and stable lines selected with geneticin.
(§2) T47D/MMTV-5 cells were distributed in 96-well plates (100 μl) in RPMI1640 medium +10% Charcoal stripped FCS. The cells were incubated for 24 hrs in the CO2-oven. A volume of 100 μl of the compound dilutions in medium +agonist (500 nM aldost; 50 nM progest) were added, and the plates further incubated for another 24 hrs after which the luciferase expression was measured.

[2] = target: T2, progesterone (PR) receptor (Homo sapiens, UniProt P06401); experiment: PR functional assay using T47D/MMTV-5 cells; assay type: cell-based; settings: read-out: inhibition of the PR agonist response
T2 construct: containing endogenous mineralocorticoid-(MR) and progesterone (PR) receptors; endogenous in cells; host or cells: T47D/MMTV-5 (human breast carcinoma, stably carrying the pMAMneo-Luc reporter)
T2 sequence (P06401 1-933): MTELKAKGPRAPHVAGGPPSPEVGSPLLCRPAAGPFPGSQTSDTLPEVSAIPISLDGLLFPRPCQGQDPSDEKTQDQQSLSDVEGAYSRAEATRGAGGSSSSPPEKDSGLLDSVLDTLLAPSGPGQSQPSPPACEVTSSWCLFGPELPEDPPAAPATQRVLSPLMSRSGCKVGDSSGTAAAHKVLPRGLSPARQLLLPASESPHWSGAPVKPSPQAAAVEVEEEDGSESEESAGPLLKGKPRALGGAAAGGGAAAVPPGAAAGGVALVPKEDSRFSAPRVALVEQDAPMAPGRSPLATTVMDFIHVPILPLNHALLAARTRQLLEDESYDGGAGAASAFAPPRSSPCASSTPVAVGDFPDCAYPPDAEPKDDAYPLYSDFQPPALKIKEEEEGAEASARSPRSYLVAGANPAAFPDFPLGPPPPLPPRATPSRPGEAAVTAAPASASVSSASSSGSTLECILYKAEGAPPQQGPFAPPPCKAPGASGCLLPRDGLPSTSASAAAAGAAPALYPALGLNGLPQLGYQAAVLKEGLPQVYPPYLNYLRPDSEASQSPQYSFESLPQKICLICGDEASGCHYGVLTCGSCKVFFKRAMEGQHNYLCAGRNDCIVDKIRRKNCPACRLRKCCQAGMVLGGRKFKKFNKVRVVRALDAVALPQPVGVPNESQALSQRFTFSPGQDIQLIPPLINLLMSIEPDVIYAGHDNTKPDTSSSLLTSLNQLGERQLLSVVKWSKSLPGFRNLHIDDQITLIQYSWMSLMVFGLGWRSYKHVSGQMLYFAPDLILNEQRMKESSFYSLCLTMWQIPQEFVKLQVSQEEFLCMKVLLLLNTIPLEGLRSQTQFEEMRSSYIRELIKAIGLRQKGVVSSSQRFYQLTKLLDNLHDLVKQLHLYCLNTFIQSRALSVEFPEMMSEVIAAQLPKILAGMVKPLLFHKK
Method: as §1, §2

inhibition at 3 µM [1]: 10% | inhibition at 3 µM [2]: 8%
SMILES: CC(C)(C)c1ccc(S(=O)(=O)N2CCC3=Cc4c(cnn4-c4ccc(F)cc4)C[C@]3(C)C2)cc1 [Example 29, (S)-6-(4-tert-Butyl-benzenesulfonyl)-1-(4-fluoro-phenyl)-4a-methyl-4,4a,5,6,7,8-hexahydro-1H-1,2,6-triaza-cyclopenta[b]naphthalene]
